Measured values as given in US8853250B2, “Sodium channel inhibitors” (Icagen, Inc., priority 2007, dated 2014).
Like-named read-outs stand apart in the source and are kept apart here.

Tests used:
[1] = target: T1, hSCN3A (Homo sapiens, UniProt Q9NY46); experiment: Whole-cell patch-clamp electrophysiology, hSCN3A in HEK cells; type: cell-based
T1 construct: expressed in transfected cells
Protocol: (§1) Human Embryonic Kidney (HEK) cells were transfected with hSCN3A or hSCN9A constructs using lipofectamine reagent (Invitrogen), using standard techniques. […] Clones were screened for expression using the whole-cell voltage-clamp technique.
(§2) HEK cells stably transfected with hSCN3A or hSCN9A were maintained in DMEM medium supplemented with 10% heat-inactivated fetal bovine serum and 400 μg/ml G418 sulfate in an incubator at 37° C. with a humidified atmosphere of 10% CO2. […] For electrophysiological studies, cells were removed from the culture flask by brief trypsinization and replated at low density onto glass cover slips. Cells were typically used for electrophysiological experiments within 24 to 72 h after plating. […]
(§3) The voltage-dependence of inactivation was determined by applying a series of depolarizing prepulses (8 sec long in 10 mV increments) from a negative holding potential. […] Cells were then voltage clamped at the empirically determined V1/2.
(§4) Compounds were tested for their ability to inhibit hSCN3A or hSCN9A sodium channels by activating the channel with a 20 msec voltage step to 0 mV following an 8 second conditioning prepulse to the empirically determined V1/2 (Table B). Compound effect (% inhibition) was determined by difference in current amplitude before and after application of test compounds. […]

[2] = target: T2, hSCN9A (Homo sapiens, UniProt Q15858); experiment: Whole-cell patch-clamp electrophysiology, hSCN9A in HEK cells; type: cell-based
T2 construct: expressed in transfected cells
T2 sequence (Q15858 whole entry): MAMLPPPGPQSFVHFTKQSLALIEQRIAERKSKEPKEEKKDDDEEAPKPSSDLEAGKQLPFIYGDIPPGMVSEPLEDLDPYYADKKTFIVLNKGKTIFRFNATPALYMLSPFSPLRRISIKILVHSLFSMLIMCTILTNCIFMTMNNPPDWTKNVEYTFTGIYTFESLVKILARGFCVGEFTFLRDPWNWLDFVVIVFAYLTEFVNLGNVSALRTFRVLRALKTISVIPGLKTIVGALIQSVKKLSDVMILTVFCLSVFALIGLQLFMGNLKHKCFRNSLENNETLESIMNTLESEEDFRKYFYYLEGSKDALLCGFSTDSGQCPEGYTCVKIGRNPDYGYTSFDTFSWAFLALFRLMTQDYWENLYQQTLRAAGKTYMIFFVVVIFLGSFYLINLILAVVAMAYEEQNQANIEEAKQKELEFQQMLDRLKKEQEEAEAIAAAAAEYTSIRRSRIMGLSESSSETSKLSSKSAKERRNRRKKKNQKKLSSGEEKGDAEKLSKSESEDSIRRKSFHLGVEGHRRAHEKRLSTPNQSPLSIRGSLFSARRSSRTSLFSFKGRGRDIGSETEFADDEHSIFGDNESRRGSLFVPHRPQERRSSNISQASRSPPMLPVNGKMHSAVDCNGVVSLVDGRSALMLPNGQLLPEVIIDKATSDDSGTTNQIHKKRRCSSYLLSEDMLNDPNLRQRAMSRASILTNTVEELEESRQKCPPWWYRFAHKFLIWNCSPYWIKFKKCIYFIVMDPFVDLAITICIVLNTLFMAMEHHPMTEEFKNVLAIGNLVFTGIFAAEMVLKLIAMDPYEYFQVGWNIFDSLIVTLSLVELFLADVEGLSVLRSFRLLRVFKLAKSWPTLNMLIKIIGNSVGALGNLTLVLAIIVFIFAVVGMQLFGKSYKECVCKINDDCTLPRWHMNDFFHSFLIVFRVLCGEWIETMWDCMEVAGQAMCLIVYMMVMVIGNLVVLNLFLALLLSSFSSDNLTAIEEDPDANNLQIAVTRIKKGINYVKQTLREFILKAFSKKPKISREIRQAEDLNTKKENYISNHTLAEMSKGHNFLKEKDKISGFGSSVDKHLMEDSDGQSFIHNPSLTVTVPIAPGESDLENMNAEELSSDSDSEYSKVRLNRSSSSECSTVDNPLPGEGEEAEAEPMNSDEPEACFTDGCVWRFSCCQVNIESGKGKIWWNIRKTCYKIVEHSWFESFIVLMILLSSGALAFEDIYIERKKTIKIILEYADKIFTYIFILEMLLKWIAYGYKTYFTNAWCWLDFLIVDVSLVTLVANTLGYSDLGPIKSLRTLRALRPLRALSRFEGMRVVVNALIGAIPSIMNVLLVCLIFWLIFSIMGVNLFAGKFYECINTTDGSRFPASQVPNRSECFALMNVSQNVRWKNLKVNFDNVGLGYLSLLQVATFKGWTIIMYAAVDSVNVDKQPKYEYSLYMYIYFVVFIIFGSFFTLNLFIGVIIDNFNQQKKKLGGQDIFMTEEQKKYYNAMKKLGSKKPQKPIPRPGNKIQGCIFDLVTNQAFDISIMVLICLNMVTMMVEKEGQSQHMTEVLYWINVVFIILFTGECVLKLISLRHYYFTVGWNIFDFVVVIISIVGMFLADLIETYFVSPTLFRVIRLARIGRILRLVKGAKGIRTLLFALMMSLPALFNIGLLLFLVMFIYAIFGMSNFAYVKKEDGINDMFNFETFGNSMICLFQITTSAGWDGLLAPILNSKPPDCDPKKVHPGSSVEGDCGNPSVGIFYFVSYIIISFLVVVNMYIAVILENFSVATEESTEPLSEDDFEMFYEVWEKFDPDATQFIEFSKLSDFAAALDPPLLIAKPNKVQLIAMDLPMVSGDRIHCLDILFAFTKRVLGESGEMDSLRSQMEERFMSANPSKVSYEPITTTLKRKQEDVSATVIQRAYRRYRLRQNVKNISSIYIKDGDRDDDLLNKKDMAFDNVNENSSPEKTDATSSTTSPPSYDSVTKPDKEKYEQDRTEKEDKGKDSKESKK
Protocol: as §1, §2, §3, §4

[3] = target: Nav1.3 (Homo sapiens, UniProt Q9NY46); details: read-out: TTX IC-50; cited from earlier work
Sequence of Nav1.3 (Q9NY46 whole entry, looked up): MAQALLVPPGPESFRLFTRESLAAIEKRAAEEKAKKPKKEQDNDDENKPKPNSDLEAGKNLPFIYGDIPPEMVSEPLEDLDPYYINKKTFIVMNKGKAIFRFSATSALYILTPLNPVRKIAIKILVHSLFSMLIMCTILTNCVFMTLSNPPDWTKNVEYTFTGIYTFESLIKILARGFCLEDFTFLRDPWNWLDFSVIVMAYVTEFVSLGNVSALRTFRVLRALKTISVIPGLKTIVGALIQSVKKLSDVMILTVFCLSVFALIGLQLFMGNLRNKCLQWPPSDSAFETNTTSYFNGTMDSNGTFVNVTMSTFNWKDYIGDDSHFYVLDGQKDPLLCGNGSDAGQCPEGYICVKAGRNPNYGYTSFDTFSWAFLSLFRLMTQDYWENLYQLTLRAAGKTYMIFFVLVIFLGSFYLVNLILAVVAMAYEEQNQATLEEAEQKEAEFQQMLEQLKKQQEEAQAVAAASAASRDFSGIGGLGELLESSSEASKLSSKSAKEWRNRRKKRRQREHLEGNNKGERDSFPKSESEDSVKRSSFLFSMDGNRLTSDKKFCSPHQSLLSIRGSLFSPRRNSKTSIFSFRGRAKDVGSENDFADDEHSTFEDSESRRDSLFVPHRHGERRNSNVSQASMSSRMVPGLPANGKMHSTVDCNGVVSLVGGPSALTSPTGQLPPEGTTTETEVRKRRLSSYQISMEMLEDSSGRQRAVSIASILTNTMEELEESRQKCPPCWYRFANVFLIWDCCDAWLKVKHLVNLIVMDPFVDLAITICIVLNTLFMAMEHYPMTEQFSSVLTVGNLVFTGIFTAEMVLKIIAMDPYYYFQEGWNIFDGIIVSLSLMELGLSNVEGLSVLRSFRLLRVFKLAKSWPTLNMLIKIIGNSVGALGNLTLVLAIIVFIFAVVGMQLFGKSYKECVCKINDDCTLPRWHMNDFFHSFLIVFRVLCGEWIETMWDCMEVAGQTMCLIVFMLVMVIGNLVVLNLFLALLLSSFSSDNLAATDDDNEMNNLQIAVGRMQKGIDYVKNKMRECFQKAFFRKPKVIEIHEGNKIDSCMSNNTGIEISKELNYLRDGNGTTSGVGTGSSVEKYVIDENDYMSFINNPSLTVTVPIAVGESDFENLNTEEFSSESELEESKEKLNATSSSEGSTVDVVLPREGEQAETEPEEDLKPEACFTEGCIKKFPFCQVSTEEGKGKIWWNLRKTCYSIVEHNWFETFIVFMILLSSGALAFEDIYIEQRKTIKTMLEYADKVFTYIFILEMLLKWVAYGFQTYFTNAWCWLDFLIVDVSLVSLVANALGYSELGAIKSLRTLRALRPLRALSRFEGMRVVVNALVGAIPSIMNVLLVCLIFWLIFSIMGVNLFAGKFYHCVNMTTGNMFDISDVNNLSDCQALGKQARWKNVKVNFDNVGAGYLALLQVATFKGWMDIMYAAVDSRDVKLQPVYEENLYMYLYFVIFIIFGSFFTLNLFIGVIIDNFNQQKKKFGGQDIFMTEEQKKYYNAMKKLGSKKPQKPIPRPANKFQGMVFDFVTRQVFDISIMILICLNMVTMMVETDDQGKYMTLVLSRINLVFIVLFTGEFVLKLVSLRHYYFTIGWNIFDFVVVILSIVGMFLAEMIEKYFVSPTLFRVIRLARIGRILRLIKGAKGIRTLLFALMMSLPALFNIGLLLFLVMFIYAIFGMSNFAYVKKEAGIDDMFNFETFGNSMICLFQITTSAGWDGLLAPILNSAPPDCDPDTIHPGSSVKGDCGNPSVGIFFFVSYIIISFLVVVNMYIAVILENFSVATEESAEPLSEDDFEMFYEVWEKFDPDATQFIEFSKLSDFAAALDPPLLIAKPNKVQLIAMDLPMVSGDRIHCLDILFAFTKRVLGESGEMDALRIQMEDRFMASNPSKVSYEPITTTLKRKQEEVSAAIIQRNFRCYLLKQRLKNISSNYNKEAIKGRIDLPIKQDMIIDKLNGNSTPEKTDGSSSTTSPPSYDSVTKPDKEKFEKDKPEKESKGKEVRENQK

[4] = target: Nav1.6 (Homo sapiens, UniProt Q9UQD0); details: read-out: TTX IC-50; cited from earlier work
[5] = target: Nav1.8 (Homo sapiens, UniProt Q9Y5Y9); details: read-out: TTX IC-50; cited from earlier work
[6] = target: Nav1.9 (Homo sapiens, UniProt Q9UI33); details: read-out: TTX IC-50; cited from earlier work
[7] = target: Nav1.1 (Homo sapiens, UniProt P35498); details: read-out: TTX IC-50; cited from earlier work
[8] = target: Nav1.2 (Homo sapiens, UniProt Q99250); details: read-out: TTX IC-50; cited from earlier work

T1 sequence (Q9NY46 whole entry): as the sequence (Q9NY46 whole entry, looked up) above

Q: Which IC50 [1] does the source give for `O=S(=O)(CCc1ccc(C(F)(F)F)cc1)c1ccc(S(=O)(=O)Nc2nccs2)cc1` [Compound 20, N-(thiazol-2-yl)-4-(4-(trifluoromethyl)phenethylsulfonyl)benzenesulfonamide] here?
A: Its IC50 is 160 nM.

Q: What about the IC50 [2] of the same molecule?
A: Its IC50 is over 10000 nM.

Q: Which IC50 ([1]; estimated IC-50 from single point % inhibition, HEK cells, 8 sec prepulse to V1/2, step to 0 mV, read-out: hSCN3A EIC-50) does the source give for `O=S(=O)(Nc1nccs1)c1ccc(S(=O)(=O)c2ccccc2)cc1` [Compound 65, 4-(phenylsulfonyl)-N-(thiazol-2-yl)benzenesulfonamide] here?
A: Its IC50 is 5000 nM.

Q: And the IC50 ([2]; estimated IC-50 from single point % inhibition, HEK cells, 8 sec prepulse to V1/2, step to 0 mV, read-out: hSCN9A EIC-50)?
A: The IC50 was 2700 nM.

Q: For `NC1=N[C@H](O)[C@H]2[C@H]3O[C@]4(O)O[C@@H]([C@@H](O)[C@@]2(N1)[C@@H]4O)[C@]3(O)CO` [TTX, tetrodotoxin], which IC50 [3] is on record?
A: The IC50 was 15 nM.

Q: What about the IC50 [4] of the same molecule?
A: The IC50 was 6 nM.

Q: What about the IC50 [5] of the same molecule?
A: Its IC50 is 50000 nM.

Q: What about the IC50 [6] of the same molecule?
A: Its IC50 is 1000 nM.

Q: And the IC50 [7]?
A: The IC50 was 10 nM.

Q: What about the IC50 [8] of the same molecule?
A: The IC50 was 10 nM.
